In brackets after ≈: the same amount, converted by molar mass. Where two headings read alike, the source gives them in different places.
Assays:
[1] = test system: Staphylococcus aureus ATCC 29213, CCM 4223; assay: Antibacterial microdilution broth method, S. aureus; type: cell-based
[2] = test system: Pseudomonas aeruginosa ATCC 27853, CCM 3955; assay: Antibacterial microdilution broth method, P. aeruginosa; type: cell-based; settings: Pseudomonas aeruginosa, P. aeruginosa
Candida glabrata 20/I = assay: Antifungal microdilution broth method, C. glabrata; type: cell-based; settings: Nakaseomyces glabratus
Outline: (§1)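 Compounds were taken up in DMSO, then serially diluted twofold into MOPS-buffered (pH 7.0) RPMI-1640 containing L-glutamine and 2% glucose. Fungi were tested by microdilution following modified EUCAST guidance, and MICs were assessed by eye.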

[3] = test system: Candida albicans ATCC 44859; assay: Antifungal microdilution broth method, C. albicans; type: cell-based
Outline: as §1

eight fungal strains = assay: Antifungal activity; type: cell-based; settings: statement over the fungal panel; time not stated
Description: The antifungal properties were evaluated against five yeast strains, namely: Candida albicans ATCC 44859, Candida tropicalis 156, Candida krusei […], Candida glabrata 20/I, Trichosporon […] 1188 and three strains of filamentous fungi: Aspergillus fumigatus 231, Lichtheimia corymbifera 272, and Trichophyton interdigitale 445. A microdilution broth method was performed according to EUCAST II, III instructions with slight modifications. Briefly, tested compounds were dissolved in DMSO and diluted in a twofold manner with RPMI-1640 medium with L-glutamine, supplemented with 2% glucose (w/v) and buffered to pH 7.0 with 3 morpholinopropane-1-sulfonic acid (all components were purchased from Sigma-Aldrich, USA). […] Positive controls consisted of test microbe solely, while negative controls consisted of medium and DMSO. Internal quality control was included too. Visual inspection was used for MIC endpoints evaluation. The experiments were conducted in duplicates. For the results to be valid, the difference in MIC determined from two parallel measurements must not be greater than one step on the dilution scale. PABA and triazole antimycotic drug fluconazole were involved as the reference compounds.

HepG2 cells = assay: Cytotoxicity, CellTiter 96 assay; type: cell-based, human; settings: 24 h incubation
Description: HepG2, human hepatocellular carcinoma cells (ATCC HB-8065; passage 5–8) purchased from Health Protection Agency Culture Collections (ECACC, Salisbury, UK) were cultured in Minimum Essentials Eagle Medium supplemented with 10% fetal bovine serum, 1% L-glutamine solution and non-essential amino acid solution (Sigma-Aldrich, St. Louis, MO, USA) in a humidified atmosphere containing 5% CO2 at 37 °C. For subculturing, the cells were harvested after trypsin/EDTA (Sigma-Aldrich, St. Louis, USA) treatment at 37 °C. To evaluate cytotoxicity, the cells treated with the tested substances were used as experimental groups whereas untreated HepG2 cells served as control groups.
The cells were seeded in a density of 10 000 cells per well in a 96-well plate. The following day the cells were treated with each of the tested substances dissolved in DMSO (maximal incubation concentration of DMSO was 1% v/v). The tested substances were prepared at different incubation concentrations in triplicates according to their solubility. Simultaneously, the controls representing 100% cell viability, 0% cell viability (the cells treated with 10% DMSO), no cell control and vehiculum controls were also involved in triplicates. After 24 h incubation in a humidified atmosphere containing 5% CO2 at 37 °C, the reagent from the kit CellTiter 96 AQueous One Solution Cell Proliferation Assay (CellTiter 96; Promega, Fitchburg, WI, USA) was added. After 2 h incubation at 37 °C absorbance of samples was recorded at 490 nm (TECAN, Infinita M200, Grödig, Austria). A standard toxicological parameter IC50 was calculated by nonlinear regression from a semilogarithmic plot of incubation concentration versus percentage of absorbance relative to untreated controls using GraphPad Prism software (version 6; GraphPad Software, Inc., La Jolla, CA, USA).
The CellTiter 96 assay used is based on the reduction of tetrazolium dye in living cells to formazan, which is then determined colorimetrically. This reduction is related to availability of NADH or NADPH. The decline in levels of these metabolically important compounds in the cell causes that the production of formazan is reduced. For quantitative comparison of cytotoxicity, the parameter IC50 was used.

[4] = 24 h incubation, read-out: MIC SA 24 h
[5] = 48 h incubation, read-out: MIC SA 48 h
[6] = 24 h incubation, read-out: MIC PA 24 h
[7] = 48 h incubation, read-out: MIC PA 48 h
[8] = ATCC44859, 24 h, read-out: MIC CA 24 h
[9] = ATCC44859, 48 h, read-out: MIC CA 48 h

Compound | MIC [1, 4] [µM] | MIC [1, 5] [µM] | MIC [2, 6] [µM] | MIC [2, 7] [µM] | MIC (Candida glabrata 20/I; 24 h, read-out: MIC CG 24 h) [µM] | MIC (Candida glabrata 20/I; 48 h, read-out: MIC CG 48 h) [µM] | MIC [3, 8] [µM] | MIC [3, 9] [µM] | MIC (eight fungal strains) [µM] | MIC, antifungal activity (eight fungal strains) | IC50 (HepG2 cells; Homo sapiens, HepG2, 24 h) [µM] | IC50 (HepG2 cells) [µM]
O=C(O)c1ccc(N=Cc2cc(F)ccc2O)cc1 [1b, 4-[(5-Fluoro-2-hydroxybenzylidene)amino]benzoic acid] | > 500 | > 500 | > 500 | > 500 | > 500 | > 500 | > 500 | > 500 | > 500 | not translated into any antifungal action | 498 | 
Cc1ccc(O)c(C=Nc2ccc(C(=O)O)cc2)c1 [1g, 4-[(2-Hydroxy-5-methylbenzylidene)amino]benzoic acid] | > 500 | > 500 | > 500 | > 500 | > 125 | > 125 | > 125 | > 125 |  | not translated into any antifungal action | > 500 | 956
COc1ccc(O)c(C=Nc2ccc(C(=O)O)cc2)c1 [1h, 4-[(2-Hydroxy-5-methoxybenzylidene)amino]benzoic acid] | > 500 | > 500 | > 500 | > 500 | 250 (≈ 67.8 µg/mL) | 250 (≈ 67.8 µg/mL) | 250 (≈ 67.8 µg/mL) | 250 (≈ 67.8 µg/mL) | ≥ 250 |  | > 500 | 530
CC(C)(C)c1ccc(O)c(C=Nc2ccc(C(=O)O)cc2)c1 [1j, 4-{[5-(Tert-butyl)-2-hydroxybenzylidene]amino}benzoic acid] | > 500 | > 500 | > 500 | > 500 | > 500 | > 500 | > 500 | > 500 |  | not translated into any antifungal action | 80.8 | 
O=C(O)c1ccc(N=Cc2c(O)cccc2Cl)cc1 [1k, 4-[(2-Chloro-6-hydroxybenzylidene)amino]benzoic acid] | > 500 | > 500 | > 500 | > 500 | 125 (≈ 34.5 µg/mL) | 125 (≈ 34.5 µg/mL) | 125 (≈ 34.5 µg/mL) | 125 (≈ 34.5 µg/mL) |  |  | 280 | 
O=C(O)c1ccc(N=Cc2ccc(Cl)cc2O)cc1 [1l, 4-[(4-Chloro-2-hydroxybenzylidene)amino]benzoic acid] | > 500 | > 500 | > 500 | > 500 | 500 (≈ 138 µg/mL) | > 500 | 250 (≈ 68.9 µg/mL) | > 500 | ≥ 250 |  | 264 | 
O=C(O)c1ccc(N=Cc2cccc(Cl)c2O)cc1 [1m, 4-[(3-Chloro-2-hydroxybenzylidene)amino]benzoic acid] | > 500 | > 500 | > 500 | > 500 | 62.5 (≈ 17.2 µg/mL) | 62.5 (≈ 17.2 µg/mL) | 31.2 (≈ 8.62 µg/mL) | 31.2 (≈ 8.62 µg/mL) | ≥ 31.2 |  | 247 | 
O=C(O)c1ccc(N=Cc2cc(Cl)cc(Br)c2O)cc1 [1o, 4-[(3-Bromo-5-chloro-2-hydroxybenzylidene)amino]benzoic acid] | 15.6 (≈ 5.54 µg/mL) | 15.6 (≈ 5.54 µg/mL) | > 500 | > 500 | 15.6 (≈ 5.54 µg/mL) | 15.6 (≈ 5.54 µg/mL) | 31.2 (≈ 11.1 µg/mL) | 31.2 (≈ 11.1 µg/mL) |  |  | 85.7 | 
O=C(O)c1ccc(N=Cc2cc(Cl)cc(I)c2O)cc1 [1p, 4-[(5-Chloro-2-hydroxy-3-iodobenzylidene)amino]benzoic acid] | 15.6 (≈ 6.27 µg/mL) | 15.6 (≈ 6.27 µg/mL) | > 500 | > 500 | 7.81 (≈ 3.14 µg/mL) | 7.81 (≈ 3.14 µg/mL) | 7.81 (≈ 3.14 µg/mL) | 7.81 (≈ 3.14 µg/mL) |  |  | 53.4 | 
O=C(O)c1ccc(N=Cc2cc(I)cc(I)c2O)cc1 [1q, 4-[(2-Hydroxy-3,5-diiodobenzylidene)amino]benzoic acid] | 62.5 (≈ 30.8 µg/mL) | 62.5 (≈ 30.8 µg/mL) | > 500 | > 500 | 7.81 (≈ 3.85 µg/mL) | 7.81 (≈ 3.85 µg/mL) | 7.81 (≈ 3.85 µg/mL) | 7.81 (≈ 3.85 µg/mL) |  |  | 57.8 | 

Reference: PMC7023430, “4-Aminobenzoic Acid Derivatives: Converting Folate Precursor to Antimicrobial and Cytotoxic Agents” (Biomolecules, 2019)
